We go through 16 compounds from ChEMBL document CHEMBL2375319, “Design, synthesis and structure-activity relationships of 3,5-diaryl-1H-pyrazoles as inhibitors of arylamine N-acetyltransferase” (Bioorg Med Chem Lett, 2013).

The nature of test [1]: Inhibition of Mycobacterium marinum recombinant arylamine N-acetyltransferase-mediated acetyl coA hydrolysis at 30 uM by DTNB-based spectrophotometric analysis.
The nature of test [2]: Inhibition of Mycobacterium marinum recombinant arylamine N-acetyltransferase-mediated acetyl coA hydrolysis by DTNB-based spectrophotometric analysis.
Test [3] in a line: Competitive inhibition of Mycobacterium marinum recombinant arylamine N-acetyltransferase-mediated acetyl coA hydrolysis by DTNB-based spectrophotometric analysis.
Test [4] can be described thus: Inhibition of Pseudomonas aeruginosa arylamine N-acetyltransferase.
For test [5], the system named is Mycobacterium tuberculosis. The experiment in a line: Antimycobacterial activity against Mycobacterium tuberculosis after 28 days. The class given is functional. The settings on record: 672 h.

In brackets after ≈: the same amount, converted by molar mass. Where only a bound is given, the exact number is not on record here.

By inhibition is commonly meant the share of the control response that was lost under treatment. By IC50 is commonly meant the concentration that inhibits the measured activity by half. Consider `Fc1ccc(-c2cc(-c3cc(F)ccc3F)n[nH]2)cc1`, for which the inhibition in test [1] is 29.7%. Besides, in test [2], the IC50 is over 30 µM.
Regarding `COc1ccc(-c2cc(-c3cc(OC)ccc3OC)n[nH]2)cc1`, in test [1], the inhibition worked out at 29.2%. Also, the IC50 in test [2] is over 30 µM.
For `COc1ccc(-c2cc(-c3ccccc3)n[nH]2)cc1`, in that order: 26.5% and over 30 µM.
As to `COc1ccc(OC)c(-c2cc(-c3ccccc3)[nH]n2)c1`, in test [1], the inhibition worked out at 50.7%. In test [2], the IC50 stood at 11.7 µM.
For `COc1ccc(-c2cc(-c3cc(F)ccc3F)n[nH]2)cc1`, in that order: 18.9% and over 30 µM.
For `Oc1ccc(F)cc1-c1cc(-c2ccc(F)cc2)[nH]n1`, in that order: 32.7% and over 30 µM.
For `COc1ccc(O)c(-c2cc(-c3ccccc3)[nH]n2)c1`, in that order: 53.9% and 12.9 µM.
On to `COc1ccc(-c2cc(-c3cc(F)ccc3O)n[nH]2)cc1`, for which the inhibition in test [1] came out at 46.5%. In addition, the IC50 in test [2] was over 30 µM.
On to `c1ccc(-c2cc(-c3ccccc3)[nH]n2)cc1`, for which the inhibition in test [1] was 45.2%. In test [2], the IC50 is over 30 µM.
For `COc1ccc(-c2cc(-c3cc(O)ccc3O)n[nH]2)cc1`, in that order: 21.5% and over 30 µM.
Consider `COc1ccc(-c2cc(-c3cc(O)cc(O)c3)n[nH]2)cc1`, for which the inhibition in test [1] stood at 15.6%. For the same compound, the IC50 in test [2] is over 30 µM.
With `COc1ccc(-c2cc(-c3cccc(OC)c3)n[nH]2)cc1`, the inhibition in test [1] came out at 26.5%. The IC50 in test [2] was over 30 µM.
As usually defined, the Ki is the equilibrium dissociation constant of an inhibitor or competing ligand from its target. Usually MIC stands for the smallest concentration in the dilution series that meets the test's criterion for growth inhibition. `COc1ccc(-c2cc(-c3cc(OC)ccc3O)[nH]n2)cc1`: the inhibition in test [1] is 65.8%. For the same compound, the IC50 in test [2] turned out to be 18.5 µM; in test [4], 9.7 µM. Also, the Ki in test [3] turned out to be 23.2 µM. In test [5], the lowest concentration to inhibit growth (MIC) was 34 µM (≈ 10.1 µg/mL).
As for `COc1ccc(O)c(-c2cc(-c3ccc(F)cc3)[nH]n2)c1`, the inhibition in test [1] worked out at 59.2%. Further, the IC50 in test [2] was 21.3 µM.
As for `Fc1ccc(F)c(-c2cc(-c3ccccc3)[nH]n2)c1`, the inhibition in test [1] turned out to be 53.5%. In test [2], the IC50 turned out to be 18.8 µM.
For `COc1cccc(-c2cc(-c3ccc(F)cc3)[nH]n2)c1`, in that order: 61.2% and 17.6 µM.
